One molecule from patent publication US20230146395A1, “Substituted Pyrimidines and Uses Thereof” (Verge Analytics, Inc., priority 2020, published 2023) can be followed below.

The structures appear in SMILES notation. Counter-ions that a name gives are not always drawn.

This assay addresses T1, PI3Kβ (Homo sapiens, UniProt P42338).
T1 construct: Full-length N-terminal; GST (N); host or cells: SF9 cells (baculovirus)
The assay can be described thus: Inhibition of PI3K isoforms: PI3Kβ (microfluidic electrophoresis kinase assay, PIP2/PS substrate). It is filed as biochemical. The note with it: p110β/p85α, ATP 60 μM; read-out: PI3Kb IC50. Here is the method:
The kinase substrate was prepared by mixing and sonicating fluorescently-labeled phosphatidylinositol 4,5-phosphate (PIP2) with phospho-L-serine (PS) at 1:20 ratio in 50 mM HEPES buffer pH7.5.
The kinase reactions were assembled in 384-well plates (Greiner) in a total volume of […] as follows. The kinase proteins were pre-diluted in an assay buffer comprising 50 mM HEPES, pH 7.5, 0.012% CHAPS, 1 mM DTT, 10 mM Na3VaO4, 10 mM 3-GP, 3 mM MgCl2, and 40 mM NaCl2, and dispensed into a 384-well plate (10 μL per well). Test compounds were serially pre-diluted in DMSO and added to the protein samples by acoustic dispensing (Labcyte Echo). The concentration of DMSO was equalized to 1% in all samples. All test compounds were tested at 12 concentrations. […] Terminated plates were analyzed on a microfluidic electrophoresis instrument (Caliper LabChip® 3000, Caliper Life Sciences/Perkin Elmer). The change in the relative fluorescence intensity of the PI(4,5)P substrate and PI(3,4,5)P product peaks was measured. The activity in each test sample was determined as the product to sum ratio (PSR): P/(S+P), where P is the peak height of the product, and S is the peak height of the substrate. Percent inhibition (Pinh) was determined using the following equation: […]

T1 sequence (P42338 whole entry): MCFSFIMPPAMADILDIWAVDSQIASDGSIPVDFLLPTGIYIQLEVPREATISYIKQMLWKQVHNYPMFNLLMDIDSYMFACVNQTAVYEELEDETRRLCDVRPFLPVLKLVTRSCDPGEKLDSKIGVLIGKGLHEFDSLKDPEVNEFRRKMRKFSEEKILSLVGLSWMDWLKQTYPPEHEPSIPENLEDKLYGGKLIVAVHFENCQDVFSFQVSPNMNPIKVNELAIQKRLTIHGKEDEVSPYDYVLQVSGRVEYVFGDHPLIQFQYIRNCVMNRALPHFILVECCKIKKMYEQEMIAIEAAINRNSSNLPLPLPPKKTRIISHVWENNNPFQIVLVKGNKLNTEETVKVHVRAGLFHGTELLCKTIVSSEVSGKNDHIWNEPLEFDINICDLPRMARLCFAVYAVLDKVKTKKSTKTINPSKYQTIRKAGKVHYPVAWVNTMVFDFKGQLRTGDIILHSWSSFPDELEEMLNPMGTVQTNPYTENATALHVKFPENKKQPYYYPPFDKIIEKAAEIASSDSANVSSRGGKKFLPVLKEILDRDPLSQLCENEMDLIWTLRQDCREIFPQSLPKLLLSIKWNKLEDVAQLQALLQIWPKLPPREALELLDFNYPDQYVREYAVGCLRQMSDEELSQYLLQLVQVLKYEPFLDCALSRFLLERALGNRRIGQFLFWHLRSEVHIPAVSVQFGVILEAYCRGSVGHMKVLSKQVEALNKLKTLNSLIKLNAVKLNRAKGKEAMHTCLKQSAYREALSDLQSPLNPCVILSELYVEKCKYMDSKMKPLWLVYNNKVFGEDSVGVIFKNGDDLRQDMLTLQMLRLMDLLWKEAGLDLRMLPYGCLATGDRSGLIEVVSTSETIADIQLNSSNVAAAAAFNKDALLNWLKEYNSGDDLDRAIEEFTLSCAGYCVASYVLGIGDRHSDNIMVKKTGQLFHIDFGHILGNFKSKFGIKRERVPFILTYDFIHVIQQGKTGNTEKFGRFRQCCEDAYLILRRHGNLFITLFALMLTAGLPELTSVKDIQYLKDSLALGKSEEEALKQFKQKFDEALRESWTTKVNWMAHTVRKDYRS
T1 sequence (P27986 whole entry partner): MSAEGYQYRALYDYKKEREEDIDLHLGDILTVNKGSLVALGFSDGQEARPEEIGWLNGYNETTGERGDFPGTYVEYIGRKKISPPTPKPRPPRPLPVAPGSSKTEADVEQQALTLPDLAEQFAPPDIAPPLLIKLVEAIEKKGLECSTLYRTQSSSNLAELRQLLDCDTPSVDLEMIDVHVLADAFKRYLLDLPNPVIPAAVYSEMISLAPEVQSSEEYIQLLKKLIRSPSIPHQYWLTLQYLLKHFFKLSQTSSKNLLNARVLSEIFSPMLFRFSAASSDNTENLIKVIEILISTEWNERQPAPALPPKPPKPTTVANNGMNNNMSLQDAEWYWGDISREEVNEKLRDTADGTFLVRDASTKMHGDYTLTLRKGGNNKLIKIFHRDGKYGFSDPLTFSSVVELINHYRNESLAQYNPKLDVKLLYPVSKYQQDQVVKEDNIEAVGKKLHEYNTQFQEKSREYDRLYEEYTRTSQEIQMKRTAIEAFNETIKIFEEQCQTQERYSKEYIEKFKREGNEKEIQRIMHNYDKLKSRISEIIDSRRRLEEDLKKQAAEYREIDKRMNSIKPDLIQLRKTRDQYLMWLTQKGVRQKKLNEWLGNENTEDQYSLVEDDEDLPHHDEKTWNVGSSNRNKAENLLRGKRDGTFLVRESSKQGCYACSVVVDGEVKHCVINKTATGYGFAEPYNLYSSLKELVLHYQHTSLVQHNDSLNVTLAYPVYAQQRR

As usually defined, the IC50 is the concentration at which inhibition is half-maximal. In the case of `c1ccc(-c2cc(Nc3nc(N4CCOCC4)c4oc(-c5ccncc5)cc4n3)[nH]n2)cc1` [Compound 1, 4-morpholino-N-(3-phenyl-1H-pyrazol-5-yl)-6-(pyridin-4-yl)furo[3,2-d]pyrimidin-2-amine hydrochloride], the IC50 was over 10 µM.
